Assay [1] deals with T1, Full length BMX (C-terminal NanoLuc fusion) (Homo sapiens, UniProt P51813).
T1 construct: Full length BMX and BTK was cloned into pFC32K; expressed in transfected cells; host or cells: HEK293T
T1 sequence (P51813 1-675): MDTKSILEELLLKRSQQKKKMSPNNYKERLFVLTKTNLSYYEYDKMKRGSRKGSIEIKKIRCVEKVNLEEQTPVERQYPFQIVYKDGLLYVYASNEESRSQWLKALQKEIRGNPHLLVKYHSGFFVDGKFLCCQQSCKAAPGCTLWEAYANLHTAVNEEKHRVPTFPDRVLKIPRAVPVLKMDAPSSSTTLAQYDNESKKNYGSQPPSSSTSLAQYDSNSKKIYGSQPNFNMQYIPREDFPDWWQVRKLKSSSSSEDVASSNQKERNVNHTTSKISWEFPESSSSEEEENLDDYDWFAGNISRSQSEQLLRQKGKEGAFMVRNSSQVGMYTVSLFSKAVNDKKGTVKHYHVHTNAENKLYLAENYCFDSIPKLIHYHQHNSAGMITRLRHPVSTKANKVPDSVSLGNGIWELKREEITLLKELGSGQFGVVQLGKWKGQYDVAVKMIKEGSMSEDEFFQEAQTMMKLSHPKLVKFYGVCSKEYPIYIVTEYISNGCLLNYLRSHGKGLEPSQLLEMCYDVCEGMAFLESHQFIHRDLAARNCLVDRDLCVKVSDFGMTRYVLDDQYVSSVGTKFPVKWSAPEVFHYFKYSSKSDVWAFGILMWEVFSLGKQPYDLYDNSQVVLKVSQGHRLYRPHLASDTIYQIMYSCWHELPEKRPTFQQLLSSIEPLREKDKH
As to the kind of experiment: Cellular NanoBRET target engagement assay in HEK293T cells. The format is cell-based. Particulars: 0.5 µM Tracer K4, 2 h incubation. How it is done: (§1) Full length BMX and BTK was cloned into pFC32K (Promega, Madison, WI, USA) for expression of a C-terminal NanoLuc fusion. The plasmids were transfected into HEK293T cells cultured in DMEM (Gibco, Waltham, MA, USA) supplemented with 10% fetal bovine serum (Gibco, Waltham, MA, USA) and Penicillin/Streptamycin (Gibco, Waltham, MA, USA). NanoBRET assays were performed using the protocol published previously. Briefly, after transfection and 20 h incubation cells were harvested and subsequently resuspended in OptiMEM (Gibco, Waltham, MA, USA). Cells were aliquoted onto […] (Greiner, Kremsmünster, Austria), and inhibitors as well as 0.5 µM Tracer K4 (Promega) for BMX or 0.5 µM Tracer K5 (Promega, Madison, WI, USA) for BTK were added using an ECHO acoustic dispenser. The plates were incubated at 37 °C with 5% CO2 for 2 h prior to the addition of both NanoBRET NanoGlo substrate (Promega, Madison, WI, USA) and extracellular NanoLuc inhibitor. BRET luminescence (450 nm for donor emission and 610 nm for BRET signal) was measured using PHERAstar FSX plate reader (BMG Labtech, Ortenberg, Germany). Milli-BRET units (mBU) were calculated as a ratio between BRET signal and the overall measured luminescence. A dose–response fitting was applied and IC50 values were calculated using the Prism software. […] Experiments were performed as tripicates and repeated at least three times.

Assay [2] concerns the target T2, Full length BTK (C-terminal NanoLuc fusion) (Homo sapiens, UniProt Q06187).
T2 construct: Full length BMX and BTK was cloned into pFC32K; expressed in transfected cells; host or cells: HEK293T
Described as above. It counts as cell-based. The following applies: 0.5 µM Tracer K5, 2 h incubation. How it is done:
as §1

For the next assay, the target named is T3, HER2 (Homo sapiens, UniProt P04626).
T3 construct: purchased Reaction Biology Corporation
As to the kind of experiment: Radiometric kinase assay (Reaction Biology HotSpot). It counts as biochemical. The following applies: [ATP] = 10 μM; for remaining activity at 0.2 µM: 200 nM compound, duplicate mean, read-out: Residual Activity @ 200 nM, HER2. Here is the method:
(§2) If not mentioned differently, in vitro profiling of compounds was performed at Reaction Biology Corporation using the HotSpot™ assay platform.

A further assay concerns the target T4, BLK (Homo sapiens, UniProt P51451).
T4 construct: purchased Reaction Biology Corporation
Described as above. The following applies: [ATP] = 10 μM; for remaining activity at 0.2 µM: 200 nM compound, duplicate mean, read-out: Residual Activity @ 200 nM, BLK. It counts as biochemical. Here is the method:
as §2

A further assay deals with T5, ITK (Homo sapiens, UniProt Q08881).
T5 construct: purchased Reaction Biology Corporation
T5 sequence (Q08881 1-620): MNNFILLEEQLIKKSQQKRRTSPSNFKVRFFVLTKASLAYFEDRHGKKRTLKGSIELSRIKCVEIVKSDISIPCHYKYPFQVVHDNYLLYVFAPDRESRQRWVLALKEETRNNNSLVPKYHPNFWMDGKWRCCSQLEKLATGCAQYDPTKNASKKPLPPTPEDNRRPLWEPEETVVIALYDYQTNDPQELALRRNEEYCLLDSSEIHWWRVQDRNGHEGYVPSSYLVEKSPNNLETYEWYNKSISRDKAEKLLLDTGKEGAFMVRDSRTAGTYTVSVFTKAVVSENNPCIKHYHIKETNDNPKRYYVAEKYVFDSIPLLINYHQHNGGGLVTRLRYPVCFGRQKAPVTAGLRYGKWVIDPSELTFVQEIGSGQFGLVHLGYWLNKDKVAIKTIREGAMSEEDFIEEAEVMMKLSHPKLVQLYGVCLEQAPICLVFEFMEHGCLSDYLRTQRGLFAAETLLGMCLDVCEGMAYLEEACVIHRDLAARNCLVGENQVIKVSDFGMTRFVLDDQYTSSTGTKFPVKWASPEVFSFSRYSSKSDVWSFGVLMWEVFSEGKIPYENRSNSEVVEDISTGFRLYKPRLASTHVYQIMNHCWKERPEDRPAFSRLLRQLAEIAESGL
The assay is described as above. It counts as biochemical. The following applies: 200 nM compound, duplicate mean, [ATP] = 10 μM; read-out: Residual Activity @ 200 nM, ITK. How it is done: as §2

In a further assay the target is T6, HER4 (Homo sapiens, UniProt Q15303).
T6 construct: purchased Reaction Biology Corporation
Described as above. Particulars: [ATP] = 10 μM; for remaining activity at 0.2 µM: 200 nM compound, duplicate mean, read-out: Residual Activity @ 200 nM, HER4. The format is biochemical. Here is the method:
as §2

The target in the next assay is T7, kinase domain of JAK3 (Homo sapiens, UniProt P52333).
T7 construct: The kinase domains of JAK3 and BMX at 2 μM; made in house
As to the kind of experiment: Thermal shift (ΔTm) assay. The following applies: 2 μM kinase domain, 10 μM inhibitor; mean ± SD of at least three measurements. The format is binding. How it is done: (§3) The kinase domains of JAK3 and BMX at 2 μM were mixed with the inhibitors at 10 μM, and subsequently SyPRO orange dye (Invitrogen Carlsbad, CA, USA) was added. The thermal shift assay and data evaluation were performed as described previously using a Real-Time PCR Mx3005p machine (Stratagene, La Jolla, CA, USA).

The target in the next assay is T8, kinase domain of BMX (Homo sapiens, UniProt P51813).
T8 construct: The kinase domains of JAK3 and BMX at 2 μM
As to the kind of experiment: Thermal shift (ΔTm) assay. The following applies: 2 μM kinase domain, 10 μM inhibitor; mean ± SD of at least three measurements. The format is binding. How it is done: as §3

Where [3] appears, read: radiometric HotSpot, five-dose singlicate.

Each structure is given as a SMILES string. A value given as a limit tells only on which side of the number the result lay.

We go through 5 compounds from article PMC7730235, “Discovery of a Novel Class of Covalent Dual Inhibitors Targeting the Protein Kinases BMX and BTK” (International Journal of Molecular Sciences, 2020).

T6 sequence (Q15303 26-1308): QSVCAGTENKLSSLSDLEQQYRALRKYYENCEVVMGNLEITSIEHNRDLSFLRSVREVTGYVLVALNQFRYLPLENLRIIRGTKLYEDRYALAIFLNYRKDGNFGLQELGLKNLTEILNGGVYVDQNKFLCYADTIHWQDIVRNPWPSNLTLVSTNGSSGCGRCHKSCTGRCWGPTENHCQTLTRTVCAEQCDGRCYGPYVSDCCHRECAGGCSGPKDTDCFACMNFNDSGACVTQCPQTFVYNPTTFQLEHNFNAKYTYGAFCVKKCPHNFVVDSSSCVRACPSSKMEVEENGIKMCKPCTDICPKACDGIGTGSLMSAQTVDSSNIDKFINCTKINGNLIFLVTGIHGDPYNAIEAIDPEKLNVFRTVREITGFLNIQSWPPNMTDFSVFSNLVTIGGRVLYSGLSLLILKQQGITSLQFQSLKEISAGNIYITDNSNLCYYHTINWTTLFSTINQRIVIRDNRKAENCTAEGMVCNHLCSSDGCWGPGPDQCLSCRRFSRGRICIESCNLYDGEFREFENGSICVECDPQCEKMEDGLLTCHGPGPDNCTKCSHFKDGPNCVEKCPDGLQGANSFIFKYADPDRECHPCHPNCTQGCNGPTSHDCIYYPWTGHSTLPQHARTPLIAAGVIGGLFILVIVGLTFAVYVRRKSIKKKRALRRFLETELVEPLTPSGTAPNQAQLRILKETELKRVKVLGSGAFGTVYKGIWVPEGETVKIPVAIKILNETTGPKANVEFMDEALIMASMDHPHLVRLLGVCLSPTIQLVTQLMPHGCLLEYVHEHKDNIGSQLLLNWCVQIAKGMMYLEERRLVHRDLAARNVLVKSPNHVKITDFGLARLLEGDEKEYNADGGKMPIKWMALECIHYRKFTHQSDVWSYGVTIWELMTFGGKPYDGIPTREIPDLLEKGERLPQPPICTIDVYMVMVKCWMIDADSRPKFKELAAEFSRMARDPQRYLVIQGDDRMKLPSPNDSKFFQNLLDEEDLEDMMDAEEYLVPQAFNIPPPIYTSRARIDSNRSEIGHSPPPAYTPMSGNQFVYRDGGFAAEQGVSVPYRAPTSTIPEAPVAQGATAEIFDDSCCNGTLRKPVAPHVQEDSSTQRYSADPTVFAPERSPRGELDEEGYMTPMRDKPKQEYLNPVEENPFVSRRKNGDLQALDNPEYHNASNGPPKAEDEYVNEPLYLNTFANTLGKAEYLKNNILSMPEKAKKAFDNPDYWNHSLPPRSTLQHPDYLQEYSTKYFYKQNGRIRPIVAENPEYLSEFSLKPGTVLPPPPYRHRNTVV
T3 sequence (P04626 23-1255): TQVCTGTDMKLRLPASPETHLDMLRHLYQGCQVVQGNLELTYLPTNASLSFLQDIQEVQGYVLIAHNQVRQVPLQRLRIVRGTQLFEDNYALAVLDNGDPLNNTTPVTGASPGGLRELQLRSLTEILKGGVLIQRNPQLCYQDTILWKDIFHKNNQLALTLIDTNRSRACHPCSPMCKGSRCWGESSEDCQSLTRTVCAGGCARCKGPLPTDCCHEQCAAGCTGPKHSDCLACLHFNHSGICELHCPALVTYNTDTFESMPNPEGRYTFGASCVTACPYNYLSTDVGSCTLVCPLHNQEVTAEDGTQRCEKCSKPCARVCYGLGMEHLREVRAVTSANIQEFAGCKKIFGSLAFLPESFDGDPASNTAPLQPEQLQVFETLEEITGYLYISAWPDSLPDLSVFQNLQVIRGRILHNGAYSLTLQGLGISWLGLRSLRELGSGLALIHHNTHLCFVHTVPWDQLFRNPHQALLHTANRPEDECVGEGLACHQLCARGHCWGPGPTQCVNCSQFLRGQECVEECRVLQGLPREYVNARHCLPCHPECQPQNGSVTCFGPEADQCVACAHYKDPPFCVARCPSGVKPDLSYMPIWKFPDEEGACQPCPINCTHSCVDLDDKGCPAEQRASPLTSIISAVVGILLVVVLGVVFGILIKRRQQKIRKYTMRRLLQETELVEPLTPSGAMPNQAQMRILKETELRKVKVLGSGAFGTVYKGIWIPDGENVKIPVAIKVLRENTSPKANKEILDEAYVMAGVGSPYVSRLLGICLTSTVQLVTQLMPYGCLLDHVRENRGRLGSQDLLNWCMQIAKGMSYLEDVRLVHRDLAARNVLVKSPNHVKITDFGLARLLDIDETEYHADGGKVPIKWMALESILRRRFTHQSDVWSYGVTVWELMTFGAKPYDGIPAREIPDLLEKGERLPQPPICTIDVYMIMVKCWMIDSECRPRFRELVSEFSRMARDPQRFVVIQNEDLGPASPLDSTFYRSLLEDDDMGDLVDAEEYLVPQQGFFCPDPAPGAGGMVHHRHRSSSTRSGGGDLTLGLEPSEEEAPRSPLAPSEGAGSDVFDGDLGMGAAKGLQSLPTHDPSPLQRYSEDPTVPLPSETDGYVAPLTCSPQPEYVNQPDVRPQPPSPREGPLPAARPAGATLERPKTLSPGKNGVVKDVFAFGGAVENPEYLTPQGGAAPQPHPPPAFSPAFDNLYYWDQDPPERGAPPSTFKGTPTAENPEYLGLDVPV
T7 sequence (P52333 822-1111 limits assumed): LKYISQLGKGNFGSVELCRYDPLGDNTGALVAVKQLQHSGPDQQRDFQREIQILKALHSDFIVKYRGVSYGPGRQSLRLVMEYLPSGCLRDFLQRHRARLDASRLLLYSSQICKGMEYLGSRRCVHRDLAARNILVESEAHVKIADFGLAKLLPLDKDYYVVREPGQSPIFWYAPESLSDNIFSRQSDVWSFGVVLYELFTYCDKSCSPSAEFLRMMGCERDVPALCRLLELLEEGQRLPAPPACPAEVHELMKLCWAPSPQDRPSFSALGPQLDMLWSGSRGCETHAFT
T2 sequence (Q06187 whole entry, the tested form may be a part): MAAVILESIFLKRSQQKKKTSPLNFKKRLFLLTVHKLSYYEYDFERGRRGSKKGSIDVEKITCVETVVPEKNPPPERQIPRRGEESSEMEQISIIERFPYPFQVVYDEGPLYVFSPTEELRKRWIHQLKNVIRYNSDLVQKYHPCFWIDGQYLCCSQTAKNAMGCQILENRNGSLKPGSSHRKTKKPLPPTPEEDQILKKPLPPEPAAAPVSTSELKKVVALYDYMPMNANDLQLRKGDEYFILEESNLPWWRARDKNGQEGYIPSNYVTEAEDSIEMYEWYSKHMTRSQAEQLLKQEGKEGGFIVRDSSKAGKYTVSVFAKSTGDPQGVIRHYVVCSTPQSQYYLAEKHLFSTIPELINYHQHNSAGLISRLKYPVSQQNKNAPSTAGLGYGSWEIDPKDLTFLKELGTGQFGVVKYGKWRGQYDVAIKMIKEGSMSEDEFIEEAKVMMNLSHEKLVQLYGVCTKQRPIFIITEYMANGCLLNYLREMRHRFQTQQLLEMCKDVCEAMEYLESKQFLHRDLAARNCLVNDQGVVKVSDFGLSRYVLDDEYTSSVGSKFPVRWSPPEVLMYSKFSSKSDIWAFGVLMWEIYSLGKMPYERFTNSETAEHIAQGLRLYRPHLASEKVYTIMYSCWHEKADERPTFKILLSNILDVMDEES
T4 sequence (P51451 whole entry): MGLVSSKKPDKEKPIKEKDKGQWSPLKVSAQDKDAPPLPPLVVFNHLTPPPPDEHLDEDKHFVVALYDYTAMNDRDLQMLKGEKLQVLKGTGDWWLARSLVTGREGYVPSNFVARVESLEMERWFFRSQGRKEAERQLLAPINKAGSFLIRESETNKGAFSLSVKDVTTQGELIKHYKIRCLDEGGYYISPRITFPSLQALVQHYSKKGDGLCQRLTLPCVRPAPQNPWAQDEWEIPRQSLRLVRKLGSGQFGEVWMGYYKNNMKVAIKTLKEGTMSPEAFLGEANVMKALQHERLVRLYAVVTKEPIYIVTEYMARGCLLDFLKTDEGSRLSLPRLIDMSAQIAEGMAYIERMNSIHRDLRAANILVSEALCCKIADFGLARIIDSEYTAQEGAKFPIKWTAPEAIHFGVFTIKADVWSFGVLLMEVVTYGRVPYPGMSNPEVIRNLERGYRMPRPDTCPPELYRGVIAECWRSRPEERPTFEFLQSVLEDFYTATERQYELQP

On to `C=CC(=O)Nc1cccc(-c2c[nH]c3ncccc23)c1` [Compound 9a, N-(3-(1H-pyrrolo[2,3-b]pyridin-3-yl)phenyl)acrylamide], for which the IC50 turned out to be 26 ± 11 nM in assay [1] and 15 ± 2 nM in assay [2]. The remaining activity at 0.2 µM on HER2 is 95%; at BLK, 95.8%; on ITK it was 88.1%; on HER4 it was 66.1%.
As to `C=CC(=O)Nc1cccc(-c2c[nH]c3ncc(C(N)=O)cc23)c1` [Compound 10a, 3-(3-acrylamidophenyl)-1H-pyrrolo[2,3-b]pyridine-5-carboxamide], the half-maximal inhibitory concentration (IC50) in assay [1] is 765 ± 283 nM; in assay [2], 283 ± 24 nM. The figures for the ΔTm at 10 µM on kinase domain of JAK3 and at kinase domain of BMX were 21.07 ± 0.03 °C and 10.49 ± 0.09 °C, respectively. The remaining activity at 0.2 µM turned out to be 97% at HER2, 82.4% on BLK, 90.8% on ITK and 66.6% on HER4.
For the compound `C=CC(=O)Nc1cccc(-c2c[nH]c3ncc(C(=O)NC4CCCC4)cc23)c1` [Compound 11a, 3-(3-acrylamidophenyl)-N-cyclopentyl-1H-pyrrolo[2,3-b]pyridine-5-carboxamide], the values for the concentration for half-maximal inhibition (IC50) in assay [1] and in assay [2] were 6070 ± 1830 nM and 2070 ± 32 nM, respectively. Further, the results for the thermal shift (ΔTm) at 10 µM at kinase domain of JAK3 and at kinase domain of BMX were 9.12 ± 0.02 °C and 5.31 ± 0.18 °C, respectively.
Consider `CCC(=O)Nc1cccc(-c2c[nH]c3ncc(NC(=O)C4CCCC4)cc23)c1` [Compound 12b, N-(3-(3-propionamidophenyl)-1H-pyrrolo[2,3-b]pyridin-5-yl)cyclopentanecarboxamide], for which the figures for the IC50 in assay [1] and in assay [2] were more than 10000 nM and 8210 ± 3460 nM, respectively. The remaining activity at 0.2 µM was more than 100% at HER2, 95.1% at BLK and 95.4% on HER4.
On to `C=CC(=O)Nc1cccc(-c2c[nH]c3ncc(NC(=O)c4cccs4)cc23)c1` [Compound 12c, N-(3-(3-acrylamidophenyl)-1H-pyrrolo[2,3-b]pyridin-5-yl)thiophene-2-carboxamide], for which the half-maximal inhibitory concentration (IC50) was 3 ± 1 nM in assay [1]; 9 ± 1 nM in assay [2]; 118 nM on HER2 (setting [3]); 30 nM against BLK (setting [3]); 8.5 nM against HER4 (setting [3]). The thermal shift (ΔTm) at 10 µM is 7.36 ± 0.44 °C on kinase domain of JAK3 and 11.52 ± 0.08 °C at kinase domain of BMX. For the same compound, the remaining activity at 0.2 µM is 41.1% on HER2, 8.6% at BLK, 94% at ITK and 4.7% at HER4.
